# Test results as given in ChEMBL document CHEMBL3826915, “Design and comparative anticonvulsant activity assessment of CNS-active alkyl-carbamoyl imidazole derivatives” (Bioorg Med Chem, 2016).
# Activity calls are given as the source filed them. No cut-off for these calls is given here.
# How the values were obtained:
# [1] = system: Rattus norvegicus; test: Anticonvulsant activity in albino Sprague-Dawley rat assessed as protection against maximal electroshock-induced seizures at 30 mg/kg, po after 2 hrs; type: functional, organism-based
# [2] = system: Rattus norvegicus; test: Neurotoxicity in albino Sprague-Dawley rat assessed as behavioral impairment at 30 mg/kg, po after 1 hr by rotorod test; type: toxicity, organism-based; settings: in vivo
# [3] = system: Rattus norvegicus; test: Anticonvulsant activity in ip dosed albino Sprague-Dawley rat assessed as protection against maximal electroshock-induced seizures by measuring time to peak effect; type: functional
# [4] = system: Rattus norvegicus; test: Anticonvulsant activity in ip dosed albino Sprague-Dawley rat assessed as protection against maximal electroshock-induced seizures; type: functional
# [5] = system: Rattus norvegicus; test: Anticonvulsant activity in ip dosed albino Sprague-Dawley rat assessed as protection against subcutaneous metrazol-induced seizures by measuring time to peak effect; type: functional
# [6] = system: Rattus norvegicus; test: Neurotoxicity in albino Sprague-Dawley rat assessed as behavioral impairment at 30 mg/kg, ip after 0.5 hrs by rotorod test; type: toxicity, organism-based; settings: in vivo
# [7] = system: Mus musculus; test: Neurotoxicity in albino CF1 mouse assessed as behavioral impairment at 100 mg/kg, ip after 0.5 hrs by rotorod test; type: toxicity, organism-based; settings: in vivo
# [8] = Protective index, ratio of TD50 for neurotoxicity in ip dosed albino Sprague-Dawley rat to ED50 for anticonvulsant activity in ip dosed maximal electroshock-induced seizure albino Sprague-Dawley rat model; type: toxicity, organism-based; settings: in vivo, read-out: Ratio TD50/ED50
# [9] = system: Rattus norvegicus; test: Neurotoxicity in albino Sprague-Dawley rat assessed as behavioral impairment at 30 mg/kg, ip after 1 hr by rotorod test; type: toxicity, organism-based; settings: in vivo
# [10] = system: Mus musculus; test: Anticonvulsant activity in ip dosed albino CF1 mouse assessed as protection against subcutaneous metrazol-induced seizures; type: functional
# [11] = system: Mus musculus; test: Anticonvulsant activity in albino CF1 mouse assessed as protection against maximal electroshock-induced seizures at 100 mg/kg, ip after 2 hrs; type: functional, organism-based
# [12] = system: Mus musculus; test: Neurotoxicity in albino CF1 mouse assessed as behavioral impairment at 30 mg/kg, ip after 0.5 hrs by rotorod test; type: toxicity, organism-based; settings: in vivo
# [13] = system: Mus musculus; test: Neurotoxicity in albino CF1 mouse assessed as behavioral impairment at 300 mg/kg, ip after 0.5 hrs by rotorod test; type: toxicity, organism-based; settings: in vivo
# [14] = system: Rattus norvegicus; test: Anticonvulsant activity in albino Sprague-Dawley rat assessed as protection against maximal electroshock-induced seizures at 30 mg/kg, po after 0.5 hrs; type: functional, organism-based
# [15] = system: Mus musculus; test: Anticonvulsant activity in ip dosed albino CF1 mouse assessed as protection against maximal electroshock-induced seizures by measuring time to peak effect; type: functional
# [16] = system: Mus musculus; test: Neurotoxicity in albino CF1 mouse assessed as behavioral impairment at 30 mg/kg, ip after 2 hrs by rotorod test; type: toxicity, organism-based; settings: in vivo
# [17] = Protective index, ratio of TD50 for neurotoxicity in ip dosed albino Sprague-Dawley rat to ED50 for anticonvulsant activity in ip dosed subcutaneous metrazol-induced seizure albino Sprague-Dawley rat model; type: toxicity, organism-based; settings: in vivo, read-out: Ratio TD50/ED50
# [18] = system: Mus musculus; test: Anticonvulsant activity in albino CF1 mouse assessed as protection against 32 mA current-induced seizure at 100 mg/kg, ip after 0.5 hrs by 6 Hz psychomotor test; type: functional, organism-based
# [19] = system: Mus musculus; test: Anticonvulsant activity in ip dosed albino CF1 mouse assessed as protection against maximal electroshock-induced seizures; type: functional
# [20] = system: Mus musculus; test: Neurotoxicity in albino CF1 mouse assessed as behavioral impairment at 100 mg/kg, ip after 2 hrs by rotorod test; type: toxicity, organism-based; settings: in vivo
# [21] = system: Mus musculus; test: Anticonvulsant activity in albino CF1 mouse assessed as protection against maximal electroshock-induced seizures at 30 mg/kg, ip after 2 hrs; type: functional, organism-based
# [22] = system: Mus musculus; test: Anticonvulsant activity in albino CF1 mouse assessed as protection against 32 mA current-induced seizure at 30 mg/kg, ip after 2 hrs by 6 Hz psychomotor test; type: functional, organism-based
# [23] = Protective index, ratio of TD50 for neurotoxicity in ip dosed albino CF1 mouse to ED50 for anticonvulsant activity in ip dosed 6 Hz current-induced seizure albino CF1 mouse model; settings: in vivo
# [24] = system: Rattus norvegicus; test: Neurotoxicity in albino Sprague-Dawley rat assessed as behavioral impairment at 30 mg/kg, po after 0.25 hrs by rotorod test; type: toxicity, organism-based; settings: in vivo
# [25] = system: Mus musculus; test: Anticonvulsant activity in albino CF1 mouse assessed as protection against 44 mA current-induced seizure at 100 mg/kg, ip after 2 hrs by 6 Hz psychomotor test; type: functional, organism-based
# [26] = Neurotoxicity in ip dosed albino CF1 mouse assessed as motor impairment by rotorod test; type: toxicity, organism-based; settings: in vivo
# [27] = system: Mus musculus; test: Neurotoxicity in albino CF1 mouse assessed as behavioral impairment at 100 mg/kg, ip after 1 hr by rotorod test; type: toxicity, organism-based; settings: in vivo
# [28] = system: Mus musculus; test: Anticonvulsant activity in ip dosed albino CF1 mouse assessed as protection against 6 Hz current-induced seizures by psychomotor test; type: functional
# [29] = system: Rattus norvegicus; test: Neurotoxicity in albino Sprague-Dawley rat assessed as behavioral impairment at 30 mg/kg, po after 2 hrs by rotorod test; type: toxicity, organism-based; settings: in vivo
# [30] = system: Mus musculus; test: Neurotoxicity in albino CF1 mouse assessed as behavioral impairment at 100 mg/kg, ip after 0.25 hrs by rotorod test; type: toxicity, organism-based; settings: in vivo
# [31] = system: Rattus norvegicus; test: Anticonvulsant activity in ip dosed albino Sprague-Dawley rat assessed as protection against subcutaneous metrazol-induced seizures; type: functional
# [32] = system: Mus musculus; test: Anticonvulsant activity in albino CF1 mouse assessed as protection against 32 mA current-induced seizure at 30 mg/kg, ip after 0.5 hrs by 6 Hz psychomotor test; type: functional, organism-based
# [33] = system: Mus musculus; test: Anticonvulsant activity in ip dosed albino CF1 mouse assessed as protection against subcutaneous metrazol-induced seizures by measuring time to peak effect; type: functional
# [34] = system: Mus musculus; test: Anticonvulsant activity in albino CF1 mouse assessed as protection against maximal electroshock-induced seizures at 100 mg/kg, ip after 0.5 hrs; type: functional, organism-based
# [35] = system: Rattus norvegicus; test: Neurotoxicity in albino Sprague-Dawley rat assessed as behavioral impairment at 30 mg/kg, ip after 2 hrs by rotorod test; type: toxicity, organism-based; settings: in vivo
# [36] = system: Rattus norvegicus; test: Neurotoxicity in albino Sprague-Dawley rat assessed as behavioral impairment at 30 mg/kg, ip after 0.25 hrs by rotorod test; type: toxicity, organism-based; settings: in vivo
# [37] = Neurotoxicity in ip dosed albino Sprague-Dawley rat assessed as motor impairment by rotorod test; type: toxicity, organism-based; settings: in vivo
# [38] = system: Mus musculus; test: Anticonvulsant activity in albino CF1 mouse assessed as protection against 44 mA current-induced seizure at 100 mg/kg, ip after 0.25 hrs by 6 Hz psychomotor test; type: functional, organism-based
# [39] = system: Mus musculus; test: Anticonvulsant activity in ip dosed albino CF1 mouse assessed as protection against 6 Hz current-induced seizure by measuring time to peak effect; type: functional
# [40] = system: Rattus norvegicus; test: Anticonvulsant activity in albino Sprague-Dawley rat assessed as protection against maximal electroshock-induced seizures at 30 mg/kg, po after 0.25 hrs; type: functional, organism-based
# [41] = system: Rattus norvegicus; test: Anticonvulsant activity in albino Sprague-Dawley rat assessed as protection against maximal electroshock-induced seizures at 30 mg/kg, po after 1 hr; type: functional, organism-based
# [42] = system: Rattus norvegicus; test: Neurotoxicity in albino Sprague-Dawley rat assessed as behavioral impairment at 30 mg/kg, po after 0.5 hrs by rotorod test; type: toxicity, organism-based; settings: in vivo
compound,measurement,setting,value
CC(COC(=O)NCCCn1ccnc1)CC(C)(C)C (configuration not stated),Activity,[1],inactive
same,Activity,[2],Non-toxic
same,Time,[3],0.25 h
same,ED50,[4],17 mg/kg
same,Time,[5],0.25 h
same,Activity,[6],Non-toxic
same,Activity,[7],Toxic
same,selectivity ratio,[8],4.1
same,Activity,[9],Non-toxic
same,ED50,[10],inactive
same,Activity,[11],Active
same,Activity,[12],Non-toxic
same,Activity,[13],Toxic
same,Activity,[14],inactive
same,Time,[15],0.5 h
same,Activity,[16],Non-toxic
same,selectivity ratio,[17],1
same,Activity,[18],Active
same,ED50,[19],inactive
same,Activity,[20],Non-toxic
same,Activity,[21],inactive
same,Activity,[22],inactive
same,selectivity ratio,[23],1.4
same,Activity,[24],Non-toxic
same,Activity,[25],inactive
same,TD50,[26],60 mg/kg
same,Activity,[27],Non-toxic
same,ED50,[28],44 mg/kg
same,Activity,[29],Non-toxic
same,Activity,[30],Toxic
same,ED50,[31],> 70 mg/kg
same,Activity,[32],inactive
same,Time,[33],0.5 h
same,Activity,[34],Active
same,Activity,[35],Non-toxic
same,Activity,[36],Non-toxic
same,TD50,[37],70 mg/kg
same,Activity,[38],Active
same,Time,[39],0.5 h
same,Activity,[40],inactive
same,Activity,[41],inactive
same,Activity,[42],Non-toxic
